Laboratory results published in publication PMC3867503 (PLoS ONE, 2013).
Several values for one entry are separate records, joined by “and”; a condition that tells them apart may be missing. Equal values may be shown once. Entries after “also recorded” stand apart in the source; their conditions may differ. Read-outs that look alike come from different tables or passages of the source.

Assays:
recombinant human EYA3 [1] = target: T1, recombinant human EYA3 (Homo sapiens, UniProt Q99504); assay: pNPP hydrolysis by EYA3 (tyrosine phosphatase enzyme assay); type: biochemical; settings: for IC50: recombinant human EYA3, substrate pNPP, read-out: IC50 (95% confidence intervals), pNPP hydrolysis by EYA3
T1 construct: a splice variant of Q99504 corresponding to isoform 2 and missing residues 1 - 126; made in house
T1 sequence (Q99504 1-447 isoform Q99504-2): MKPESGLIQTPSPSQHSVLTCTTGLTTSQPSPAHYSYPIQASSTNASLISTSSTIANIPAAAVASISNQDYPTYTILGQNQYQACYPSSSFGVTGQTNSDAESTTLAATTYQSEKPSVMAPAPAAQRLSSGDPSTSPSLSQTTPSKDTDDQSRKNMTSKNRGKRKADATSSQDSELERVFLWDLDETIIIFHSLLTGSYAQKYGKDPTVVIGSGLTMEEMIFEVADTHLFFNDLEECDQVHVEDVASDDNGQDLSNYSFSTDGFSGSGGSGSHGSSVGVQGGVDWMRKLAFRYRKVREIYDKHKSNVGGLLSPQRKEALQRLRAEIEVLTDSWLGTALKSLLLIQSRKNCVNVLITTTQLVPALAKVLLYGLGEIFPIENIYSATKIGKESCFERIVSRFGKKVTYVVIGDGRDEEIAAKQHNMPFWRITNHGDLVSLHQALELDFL
Procedure: Purification of recombinant EYA3 has been reported previously. Assays using the colorimetric substrate p-nitrophenylphosphate were conducted as previously reported.
Enzymatic assays were conducted using recombinant human EYA3 (a splice variant of Q99504 corresponding to isoform 2 and missing residues 1 - 126) purified as described. The chromogenic substrate para-nitrophenylphosphate (pNPP) was used to measure catalytic activity of EYA3. […] To assay potential EYA inhibitors, the compounds were pre-incubated with EYA3, pNPP added, and the formation of the p-nitrophenolate product measured. […] In addition, an ex vivo examination of sprouting angiogenesis was conducted using the aortic ring assay.

HUVECs [2] = assay: HUVEC proliferation / cell viability assay (WST-8); type: cell-based, human; settings: for effect on cell viability / proliferation: 72 hours
Procedure: 75% confluent HUVECs (<passage 8) were washed with PBS and trypsinized, deactivated with 10% FBS, spun down and counted. 1000 cells/well were seeded in triplicate in 100 μl EGM-2 complete medium either with inhibitors (in 0.2% DMSO) or vehicle alone (0.2% DMSO). After 0 hrs, 24 hrs, 48 hrs, 72 hrs of incubation at 37°C in […] 10 μl WST-8 was added to each well and incubated for 2 hours in the dark, at 37°C, […]. Absorption was read at 450 nm. Fold change was calculated as the ratio of the OD450 at the experimental time point and at the start of the experiment (0 hours).
A cell viability assay was conducted over 3 days of exposure to the test compounds in order to assess both the possibility of immediate cellular toxicity as well as any effect on cell proliferation. HUVECs were seeded and equilibrated for 24 hours before addition of the test compounds. Cellular metabolic activity was measured at defined time-points using the tetrazolium dye WST-8 to quantify NAD(P)H-dependent cellular oxidoreductase enzyme activity.
Figure 2 Proliferation of HUVECs in the presence of 7.5 μM test compounds. Cell viability was measured at 72 hours post-seeding. Asterisk represents significant differences between groups (*** P<0.001, * P<0.05).

HUVECs [3] = settings: cited from earlier work
[4] = cited from earlier work; for half-life: as previously reported; for maximal plasma concentration: single oral dose of 100 mg
recombinant human EYA3 [5] = target: T1, recombinant human EYA3; settings: recombinant EYA3, substrate pNPP; reported previously; read-out: IC50 (95% confidence intervals), pNPP hydrolysis by EYA3; cited from earlier work
HUVECs [6] = assay: Scratch wound healing (cell migration) assay; type: cell-based, human
Procedure: 10^5 HUVECs/well were seeded on 24-well plates and cultured until they reached confluency in EGM-2. The monolayers were then scratch-wounded using a 200 μl pipette tip, washed with PBS, and incubated with EGM-2 complete medium and either EYA Inhibitors or vehicle control (0.2% DMSO). Wounds were photographed immediately upon insult, and at various time-points following wounding using a phase-contrast microscope. The number of cells that migrated into the cleared area was counted using the Cell Counter function of ImageJ [20].
The effect of the test compounds on cell migration was assessed using a scratch wound healing assay and HUVEC cells. Cells were plated and grown to confluency. Scratch wounds were made using a sterile pipette tip, the medium changed to remove any cellular debris, and fresh medium with either vehicle or test compound was introduced. The number of cells that migrated into the cleared space was counted 22 hours later. […] Previous experiments had shown a role for EYA3 in trans-well migration of HUVECs. […] Lentiviral shRNA targeting EYA3 in HUVECs led to greater than 80% reduction in EYA3 protein levels (Figure 4A).
Figure 3 Lateral migration of HUVECs in the presence of test compounds. […] (B) Number of cells that migrate into the wounded area was counted using the Cell Counter functionality of ImageJ. […]

HUVECs [7] = assay: Tubulogenesis assay on growth-factor reduced Matrigel; type: cell-based, human
Procedure: Growth factor reduced Matrigel was thawed overnight on ice at 4°C. 40 μl Matrigel was added to each well of a 96-well plate and incubated for 30 mins to polymerize. 10,000 cells in 100 μl EGM-2 complete medium with either inhibitors or vehicle control (0.2% DMSO) were added to each well. Plates were incubated for 24 hours at 37°C, 5% CO2 and then photographed at 5X magnification. Tube length was measured using the NeuronJ plugin [21] for the NIH ImageJ software.
Primary endothelial cells (ECs) on basement membrane rapidly attach, align themselves and form capillary-like tubules with lumens and tight cell-cell contacts. […] To better understand the stage in matrigel tube-formation affected by 6OH-BBR we followed cells plated on growth-factor reduced matrigel and treated with either vehicle or 6OH-BBR (Figure 5C). Differences become apparent within the first two hours and are clearly visible at the 6-hour time-point. The ECs are much less organized in the presence of 6OH-BBR.
(A) Representative phase-contrast images of HUVECs plated on growth-factor reduced Matrigel in the presence of the indicated doses of test compounds, photographed 16 hours after plating. (B) Quantitation of the number of tube-like structures formed by HUVECs in the presence of test compounds. The number of tubes was measured using NeuronJ. […]

[8] = tested on: aortic ring explants from C57BL/6 mice; assay: Aortic ring sprouting assay (ex vivo); settings: mouse aortic rings in collagen, initially 7.5 μM, 10-day treatment
Procedure: The preparation of rat collagen and the aortic ring assay were carried out as previously described. Briefly, aortic ring explants were obtained from C57BL/6 mice aged 4 to 6 weeks and cultured at 37°C in a humidified incubator under a 5% CO2 atmosphere in serum-free EBM. Within 30 minutes of dissection the rings were placed in a 3D collagen matrix supported by a UV-sterilized nylon mesh ring with inner and outer diameters of 3 mm and 5.6 mm, respectively. The matrix was prepared by mixing 8 parts of collagen solution, 1 part of 10x M199 and 1 part of 23.4mg/ml NaHCO3. After another 30 min incubation at 37°C, the assembly was transferred into a well of 96-well plate filled with 150 μl of culture medium; either control medium consisting of 0.1% DMSO in EBM, 2.5% FBS, penicillin/streptomycin and 20ng/ml VEGF165 or the test inhibitor dissolved in the control medium. Each compound was applied over a 10-day period with medium changes every two days. […]
This assay allows for analysis of cell proliferation, migration, tube formation, micro-vessel branching, and perivascular recruitment. […] All the test compounds were initially assayed at 7.5 μM and the number of branch-points counted. […]
Figure 6 Effect of test compounds on aortic ring sprouting. […] (B) Quantitation of the number of sprouts per ring with each bar representing at least 4 rings. *** P<0.001, ** P<0.01, * P<0.05, ns not significant).

[9] = parameters: method as in PMID 22398967; settings: cited from earlier work

CC(O)c1oc2ccccc2c1C(=O)c1cc(Br)c(O)c(Br)c1 (centres unmarked) [1’OH-BBR, 1’-hydroxybenzbromarone]
IC50 (recombinant human EYA3 [1]): 52.5 µM

CCc1oc2ccccc2c1C(=O)c1cc(Br)c(O)c(Br)c1 [BBR, Benzbromarone]
effect on cell viability / proliferation (HUVECs [2]; 7.5 μM test compound): reduced cell viability; also recorded: significant inhibition of cell proliferation
effect on proliferation of HUVECs in the first 24 hours (HUVECs [3]): does not influence proliferation
half-life [4]: 3 h
maximal plasma concentration ([4]; rapid eliminators): 3.9 μg/ml and ~ 9.2 μM
maximal plasma concentration ([4]; slow eliminator): 9.17 μg/ml and ~ 21.8 μM

CCc1oc2ccccc2c1C(=O)c1ccc(O)cc1 [BZ, Benzarone, reference compound]
effect on cell viability / proliferation (HUVECs [2]; 7.5 μM test compound): reduced cell viability; also recorded: significant inhibition of cell proliferation
effect on proliferation of HUVECs in the first 24 hours (HUVECs [3]): does not influence proliferation
IC50 (recombinant human EYA3 [5]): 17.5 µM

Cc1oc2ccccc2c1C(=O)c1cc(I)c(O)c(I)c1 [BZI]
IC50 (recombinant human EYA3 [1]): 8.9 µM

CCc1oc2ccc(O)cc2c1C(=O)c1cc(Br)c(O)c(Br)c1 [Compound 5OH-BBR, 5-hydroxy benzbromaorne]
IC50 (recombinant human EYA3 [1]): 49.4 µM

CCc1oc2ccc(O)cc2c1C(=O)c1ccc(O)cc1 [Compound 5OH-BZ]
IC50 (recombinant human EYA3 [1]): > 150 µM

CCc1oc2cc(O)ccc2c1C(=O)c1cc(Br)c(O)c(Br)c1 [Compound 6OH-BBR, 6-hydroxybenzbromarone]
reduction of cell migration (HUVECs [6]; 7.5 μM test compound, 22 hours after wounding): ~80%
reduction in cell proliferation (HUVECs [2]; 7.5 μM test compound, 72 hours post-seeding): over 50%
effect on cell proliferation at the 24-hour time-point (HUVECs [2]; 24 hours): attenuated cell proliferation
IC50 relative to BBR (recombinant human EYA3 [1]; EYA3 inhibition in vitro): over twice
IC50 (recombinant human EYA3 [1]): 21.5 µM
inhibition of tube formation (in words) (HUVECs [7]): much stronger inhibitory effect than BZ
half-life [4]: 30 h
attenuation of aortic ring sprouting (in words) [8]: most potent inhibitor

Cc1oc2ccccc2c1C(=O)c1ccc(O)c(I)c1 [DIBZI]
effect on cell viability / proliferation (HUVECs [2]; 7.5 μM test compound): small but significant positive effect on cell proliferation
IC50 (recombinant human EYA3 [1]): 20.5 µM

Cc1oc2ccccc2c1C(=O)c1ccc(O)cc1 [DMBZ]
IC50 (recombinant human EYA3 [1]): 135 µM

CCCCc1oc2ccccc2c1C(=O)c1cc(I)c(O)c(I)c1 [ODAA]
fraction bound to plasma protein [9]: ~ 99.9%
inhibition of cell migration (in words) (HUVECs [6]): relatively weak inhibitor
effect on cell viability / proliferation (HUVECs [2]; 7.5 μM test compound): small but significant positive effect on cell proliferation
IC50 (recombinant human EYA3 [1]): 3.1 µM
inhibition of tube formation (in words) (HUVECs [7]): relatively weak inhibitor

CC(O)CCc1oc2ccccc2c1C(=O)c1cc(I)c(O)c(I)c1 (centres unmarked) [OH-ODAA]
IC50 (recombinant human EYA3 [1]): 16.4 µM
